This is an account of results in patent US20020094522A1, “Means and methods for monitoring non-nucleoside reverse transcriptase inhibitor antiretroviral therapy and guiding therapeutic decisions in the treatment of HIV/AIDS” (priority 2000, published 2002).

For experiment [1], the system named is A98G-RTV (HIV reverse transcriptase A98G). The source says:
(§1) The resistance test vectors containing a functional luciferase gene cassette were constructed and host cells were transfected with the resistance test vector DNA. The resistant test vectors contained patient-derived reverse transcriptase and protease sequences that were either susceptible or resistant to the antiretroviral agents, such as nucleoside reverse transcriptase inhibitors, non-nucleoside reverse transcriptase inhibitors and protease inhibitors. The resistance test vector viral particles produced by transfecting the resistance test vector DNA into host cells, either in the presence or absence of protease inhibitors, were used to infect target host cells grown either in the absence of NRTI or NNRTI or in the presence of increasing concentrations of the drug. The amount of luciferase activity produced in infected target host cells in the presence of drug was compared to the amount of luciferase produced in infected target host cells in the absence of drug. Drug resistance was measured as the amount of drug required to inhibit by 50% the luciferase activity detected in the absence of drug (inhibitory concentration 50%, IC50). The IC50 values were determined by plotting percent drug inhibition vs. log10 drug concentration.
(§2) Host cells were seeded in 10-cm-diameter dishes and were transfected several days after plating with resistance test vector plasmid DNA and the envelope expression vector. Transfections were performed using a calcium-phosphate precipitation procedure. The cell culture media containing the DNA precipitate was replaced with fresh medium, from one to 24 hours, after transfection. Cell culture media containing resistance test vector viral particles was harvested one to four days after transfection and was passed through a […] filter before being stored at −80° C. HIV capsid protein (p24) levels in the harvested cell culture media were determined by an EIA method as described by the manufacturer (SIAC; Frederick, Md.). Before infection, target cells (293 and 293/T) were plated in cell culture media. Control infections were performed using cell culture media from mock transfections (no DNA) or transfections containing the resistance test vector plasmid DNA without the envelope expression plasmid. One to three or more days after infection the media was removed and cell lysis buffer (Promega) was added to each well. […] The inhibitory effect of the drug was determined using the following equation: […]
(§3) where RLUluc [drug] is the relative light unit of luciferase activity in infected cells in the presence of drug and RLUluc is the Relative Light Unit of luciferase activity in infected cells in the absence of drug. IC50 values were obtained from the sigmoidal curves that were generated from the data by plotting the percent inhibition of luciferase activity vs. the log10 drug concentration.

In experiment [2] the test system is V108I -RTV (HIV reverse transcriptase V108I).
From the text: as §1, §2, §3

The subject of experiment [3] is Y181C-A98G-RTV.
From the text: as §1, §2, §3

In experiment [4] the test system is Y181I-RTV (HIV reverse transcriptase Y181I).
From the text: as §1, §2, §3

In experiment [5] the test system is Y188C-RTV (HIV reverse transcriptase Y188C).
From the text: as §1, §2, §3

Experiment [6] concerns Y188L-RTV (HIV reverse transcriptase Y188L). The experiment is described as follows: Phenotypic susceptibility assay, Y188L-RTV. The experiment is classed as cell-based, HIV-1. To be noted: site directed mutant.
From the text: as §1
as §2, with “Md.).” for “Md.). Before infection, target cells (293 and 293/T) were plated in cell culture media. Control infections were performed using cell culture media from mock transfections (no DNA) or transfections containing the resistance test vector plasmid DNA without the envelope expression plasmid. One to three or more days after infection the media was removed and cell lysis buffer (Promega) was added to each well.”

Experiment [7] has as its system K101E-G190A-RTV.
From the text: as §1, §2, §3
(§4) The K101E, K103N and G190A mutations were introduced alone and in combination into resistance test vectors using the mega-primer method for site-directed mutagenesis (Sakar and Sommar, Ibid.).

For experiment [8], the system named is K103N-G190A-RTV.
From the text: as §1, §2, §3, §4

The subject of experiment [9] is RTV-1033 (patient sample 98-1033). The experiment is described as follows: Phenotypic susceptibility assay, RTV-1033. The experiment is classed as cell-based, HIV-1. Conditions: RTV-1033, patient-derived pool. Here is the method:
Transfections were performed using a calcium-phosphate precipitation procedure. […] Cell lysates were assayed for luciferase activity (FIG. 3).
The drug inhibition curves are shown in (FIG. 3).
A resistance test vector was constructed as described in Example 1 from a patient sample designated 98-1033. […] Isolation of viral RNA and RT/PCR was used to generate a patient derived segment that comprised viral sequences coding for all of PR and aa 1-313 of RT. The PDS was inserted into an indicator gene viral vector to generate resistance test vectors designated RTV-1033 and RTV-757. RTV-1033 and RTV-757 were then tested in a phenotypic assay to determine accurately and quantitatively the level of susceptibility to a panel of anti-retroviral drugs. […] An IC50 was determined for the resistance test vector pool for each drug tested. The pattern of susceptibility to all of the drugs tested was examined and compared to known patterns of susceptibility.

In experiment [10] the test system is V189L-RTV (HIV reverse transcriptase V189L). The experiment is described as follows: Phenotypic susceptibility assay, V189L-RTV. Conditions: V189-RTV (V189L), site directed mutant. The experiment is classed as cell-based, HIV-1.
From the text: as §1
as §2, with “Md.).” for “Md.). Before infection, target cells (293 and 293/T) were plated in cell culture media. Control infections were performed using cell culture media from mock transfections (no DNA) or transfections containing the resistance test vector plasmid DNA without the envelope expression plasmid. One to three or more days after infection the media was removed and cell lysis buffer (Promega) was added to each well.”

Experiment [11] deals with V106A-F227-RTV. The experiment is described as follows: Phenotypic susceptibility assay, V106A-F227-RTV. The experiment is classed as cell-based, HIV-1. Conditions: site directed mutant.
From the text: as §1
as §2, with “Md.).” for “Md.). Before infection, target cells (293 and 293/T) were plated in cell culture media. Control infections were performed using cell culture media from mock transfections (no DNA) or transfections containing the resistance test vector plasmid DNA without the envelope expression plasmid. One to three or more days after infection the media was removed and cell lysis buffer (Promega) was added to each well.”

The test system of experiment [12] is K103N-RTV (HIV reverse transcriptase K103N). The experiment is described as follows: Phenotypic susceptibility assay, K103N-RTV. The experiment is classed as cell-based, HIV-1. Conditions: site directed mutant.
From the text: as §1
Host cells were seeded in 10-cm-diameter dishes and were transfected several days after plating with resistance test vector plasmid DNA and the envelope expression vector. Transfections were performed using a calcium-phosphate precipitation procedure. […] HIV capsid protein (p24) levels in the harvested cell culture media were determined by an EIA method as described by the manufacturer (SIAC; Frederick, Md.). […] The inhibitory effect of the drug was determined using the following equation: […]
The mutations Y188L, L100I and K103N were introduced alone and in combinationn into resistance test vectors using the mega-primer method for site-directed mutagenesis (Sakar and Sommar, Ibid.). […] We determined the pattern of phenotypic susceptibility to the NNRTIs, delavirdine, nevlrapine and efavirenz, in all 6 vectors.

Turning to `CC(C)Nc1cccnc1N1CCN(C(=O)c2cc3cc(NS(C)(=O)=O)ccc3[nH]2)CC1` [delavirdine], the “fold loss of susceptibility compared to wild type control RTV” value (“fold loss of susceptibility” below) in experiment [1] was determined as 3 fold; in experiment [3], 240 fold; in experiment [4], 20 fold; in [5] it was 3 fold; in experiment [6] it was 9 fold; in experiment [7], 2 fold. Further, the “fold loss of susceptibility” value in experiment [8] came out at 40 fold; in experiment [11], 3 fold; in experiment [12] it was 50 fold. The “fold change in susceptibility compared to wild type control RTV” value (from here on “fold change in susceptibility”) in experiment [2] is 1.3 fold; in experiment [10], 1.8 fold. The “fold decrease in susceptibility (IC50)” value in experiment [9] is 30 fold.

As for `O=C1Nc2ccc(Cl)cc2[C@@](C#CC2CC2)(C(F)(F)F)O1` [efavirenz], the “fold loss of susceptibility” value in [1] was determined as 3 fold; in experiment [3] it was 7 fold; in experiment [4], 1.4 fold; in experiment [5] it was 20 fold; in experiment [6], 110 fold; in [7] it was 120 fold. The “fold loss of susceptibility” value in experiment [8] was determined as 215 fold; in experiment [11] it was 8 fold; in experiment [12] it was 30 fold. The “fold change in susceptibility” value in experiment [2] stood at 1.7 fold; in experiment [10], 1.3 fold. Besides, in experiment [9], the “fold decrease in susceptibility (IC50)” value stood at 200 fold.

Turning to `Cc1ccnc2c1NC(=O)c1cccnc1N2C1CC1` [nevirapine], the “fold loss of susceptibility” value in [1] is on record as 8 fold; in experiment [3] it was “greater than 800 fold”; in experiment [4], 740 fold; in experiment [5], 30 fold; in experiment [6] it was “greater than 800 fold”; in experiment [7], “greater than 800 fold”. The entries for the “fold loss of susceptibility” value in experiment [8], in [11] and in [12] were “greater than 800 fold”, “greater than 800 fold” and 55 fold, respectively. Also, the “fold change in susceptibility” value was found to be 3 fold in experiment [2] and 1.3 fold in [10]. The “fold decrease in susceptibility (IC50)” value in [9] was “greater than 800 fold”.
